{
  "source": "paper PMC7143967",
  "about": "“Extensive Therapeutic Drug Monitoring of Colistin in Critically Ill Patients Reveals Undetected Risks” (Microorganisms, 2020)",
  "key": {"[1]": {"assay": "Therapeutic drug monitoring of CMS and Colistin plasma levels by HPLC-MS/MS", "procedure": "Eight critically ill patients, some of them under renal replacement therapy (continuous venovenous hemodialysis (CVVHD), intermittent HD (IHD)), infected with gram negative MDR pathogens were treated with CMS. Daily measurements of serum creatinine levels and estimation of glomerular filtration rate using the CKD-EPI Creatinine (eGFR CKD-EPI) equation [16] were used to monitor renal function. Samples were collected multiple times daily prior to/after every dose of CMS for trough/peak level determination of CMS and Colistin. After termination of the Colistin treatment course, samples were derived from the individual patient, to ensure complete and timely removal of Colistin. Blood samples were immediately centrifuged and refrigerated. The plasma was frozen and kept at −20 °C until analysis. After analysis samples were kept at −80 °C for long term storage.\nWe aimed for target Colistin serum levels of >2 mg/L in patients suffering from A. baumannii infection alone, or >4 mg/L in patients with singular Pseudomonas infections or combined infections. Dosing was done with or without a loading dose of 6–9 million international units (IU) Colistin and subsequent doses of either 3 × 2 million IU/day, 3 × 3 million IU/day, 3 × 4 million IU or 2 × 4.5 million IU, as indicated.\nA total of 50 μL of plasma samples, calibrators and controls were precipitated with 200 μL of ice cold isopropanol containing 0.5 μg/mL polymyxin B as internal standard and 0.02% TFA. After 10 min at −20 °C, centrifuging 5 min with 20,000 g at 4 °C, 100 μL of the supernatant was diluted with 400 μL of the appropriate solvent (water or 30% DMSO in water respectively) and put into the auto sampler at 4 °C. LC-MS/MS system: Dionex UltiMate 3000 XRS autosampler, XRS quaternary UHPLC pump, RS Column compartment. Column used: Aeris Peptide 1.7 μm XB-C18 2.1 × 100 mm (Phenomenex), 40 °C. Mobile phases: Gradient starting with 19% lcms-grade acetonitrile (Baker) and 0.05% TFA (Sigma) in water (Milli-Q) to 40% within 1.6 min at a flow rate of 500 μL/min. Mass spectrometer: TSQ-Vantage triple quad mass spectrometer (Thermo Fisher Scientific, San Jose, CA, USA), HESI-source, positive electrospray ionization mode, settings: ionization voltage 3500 V, vaporizer temperature 500 °C, sheath gas flow 40 (arb), auxiliary gas flow 15 (arb), capillary temperature 200 °C and declustering voltage 10 V. For multiple reaction monitoring (MRM), argon was used as collision gas at a pressure of 1.1 × 10^−3 Torr. Doubly charged parent ions of Colistins (578.5/100.9, 585.4/100.9) and polymyxin B (602.4/100.9) were used for fragmentation and the product ions and collision energies have been optimized for best intensities. A detailed procedure protocol including description of standardization, sample preparation, sample stability etc., is available upon request."}, "[2]": {"assay": "clinical", "format": "in vivo, human (critically ill ICU patients)", "settings": "for t1/2 of Colistin: first-order fit", "procedure": "(§1) Blood samples were immediately centrifuged and refrigerated.\nWhile CMS is excreted primarily via the kidneys, Colistin elimination pathways remain unclear. […] We were able to calculate elimination half-life for Colistin in 6 out of 8 patients. In our cohort, elimination half-time was greatly extended to a mean of 22.0 h (Figure 2A). The individual half-life kinetics, including details on curve fitting, are provided in the Supplementary Materials (Supplementary Materials “Elimination half times of Colistin” Figures S1–S6). Individual elimination kinetics followed a first-order kinetic. In one patient (Patient 2), we established CRRT in the midst of the elimination time course. This allowed us to forward project kinetics without CRRT and backwards interpolate kinetics with CRRT. […] The amount of available CMS relevantly impacts upon Colistin levels, since CMS acts as a pro-drug. Thus, elimination of CMS is key to reduce Colistin plasma levels whereas CMS accumulation is the source for Colistin build up. CMS elimination can be rapidly affected by changes of renal function and distribution volume. CMS trough levels might indicate potential accumulation of CMS and subsequent accumulation of Colistin. This is of potential relevance when renal CMS elimination might be impaired.\nExtensive Therapeutic Drug Monitoring Of\nSupplemental material 1 – elimination half times of Colistin\nFigure S1: plasma levels of Colistin after cessation of CMS administration. (A) linear\nscaling of colistin plasma levels in [mg/L]; fit of an 1st decay elimination curve, y =\n1,5111e-0,029x, R2= 0.97, p<0.001; (B) linear scaling colistin plasma levels in [mg/L] after\n(also on this page, place not known: 1 st Colistin [mg/L] ln (Colistin [mg/L]) time [h] time [h] (A) (B))\n(1 picture or pasted object on this page, not shown here)"}, "[3]": {"test_system": "carbapenem resistant A. baumannii (CRAB)", "assay": "Clinical/microbiological outcome of CMS/Colistin treatment", "format": "in vivo, human (critically ill ICU patients)", "procedure": "Microbiology testing was performed by the university’s Department of Microbiology. Samples included regular swab testing for screening purposes (nasal, inguinal, anal, tracheal) and specific testing of blood cultures, wound samples for detection of tissue infection, bronchoalveolar lavage (BAL) fluid and urine."}, "[4]": {"settings": "cited from earlier work; for elimination by prolonged intermittent RRT: ref Schmidt et al. [24]", "from_the_text": "Colistin was isolated from Bacillus polymyxa subsp. colistinus and consists of a cyclic heptapeptide and a tripeptide side chain acetylated at the N-terminus by a fatty acid moiety. Earlier commercially available Colistin consisted of a mixture of several chemically related subcomponents, including the two major components Colistin A and Colistin B, with a known, concentration-dependent (nephro-, neuro-, oto-) toxicity. […] Following par ... || While CMS is excreted primarily via the kidneys, Colistin elimination pathways remain unclear. […] We were able to calculate elimination half-life for Colistin in 6 out of 8 patients. In our cohort, elimination half-time was greatly extended to a mean of 22.0 h (Figure 2A). […] Subsequently CRRT became necessary due to sustained renal failu ..."}, "[5]": {"set-up": "species or system human (critically ill ICU patients)", "settings": "in vivo", "from_the_text": "as §1"}},
  "note": "Bridge positions count the residues as written; N and C are the ends. Square brackets hold non-standard residues; d marks the D form. Peptide text beside a SMILES is read from it. * marks the point of attachment. X1 = CC[C@H](C)CCCCC(=O)*; Dab = NCC[C@H](N)C(=O)O",
  "data": [
    {"molecule": "CC[C@H](C)CCCCC(=O)N[C@@H](CCN)C(=O)N[C@H](C(=O)N[C@@H](CCN)C(=O)N[C@H]1CCNC(=O)[C@H]([C@@H](C)O)NC(=O)[C@H](CCN)NC(=O)[C@H](CCN)NC(=O)[C@H](CC(C)C)NC(=O)[C@@H](CC(C)C)NC(=O)[C@H](CCN)NC1=O)[C@@H](C)O", "note": "[Colistin] (X1-[Dab]T[Dab][Dab][Dab][dL]L[Dab][Dab]T; lactam 4-C)", "values": [
      {"measurement": "time to Colistin levels >2 mg/L after dose increase", "setting": "[1]; Patient 2, dose increased from 3 × 2 to 3 × 4 million IU", "result": 48, "unit": "h"},
      {"measurement": "time to sufficient Colistin levels", "setting": "[1]; Patient 4, loading dose 9 million IU, then 3 × 3 million IU CMS daily, target 4 mg/L", "result": "eight"},
      {"measurement": "time to target Css,avg of ~4 mg/L after dose increase", "setting": "[1]; Patient 4, under CVVHDF, 3 × 4 million IU per day", "result": "four"},
      {"measurement": "time to Colistin plasma levels between 3–4 mg/L", "setting": "[1]; Patient 6, second treatment cycle, loading dose 9 million IU, then 3 million IU CMS three times a day", "result": "8 to 16", "unit": "h"},
      {"measurement": "time to target Colistin plasma levels", "setting": "[1]; Patient 7, second treatment cycle, loading dose 9 million IU, 4.5 million IU twice daily, CVVHDF", "result": "three"},
      {"measurement": "accumulation in plasma", "setting": "[1]; Patient 8, IHD-adjusted dosing with loading dose of 9 million IU, CMS stopped after 3 days", "result": "rapid accumulation"},
      {"measurement": "level at 48 h", "setting": "[1]; human, in vivo", "result": "> 2000", "unit": "ng/mL"},
      {"measurement": "level at 96 h", "setting": "[1]; human, in vivo", "result": "~4000", "unit": "ng/mL"},
      {"measurement": "level at 720 h", "setting": "[1]; human, in vivo", "result": "< 2000", "unit": "ng/mL"},
      {"measurement": "mean Colistin peak level", "setting": "[1]; plasma, sampled 30 min after CMS injection, all patients pooled, mean (±SD), n = 383, HPLC-MS/MS, unit not given", "result": "3.5 (±1.3, n = 383)"},
      {"measurement": "mean Colistin trough level", "setting": "[1]; plasma, sampled immediately prior to CMS injection, all patients pooled, mean (±SD), n = 386, HPLC-MS/MS, unit not given", "result": "3.45 (±1.3, n = 386)"},
      {"measurement": "t1/2 of Colistin", "setting": "[2]; Patient 1, eGFR 119 mL/min/1.73m^2, RRT none, R2 = 0.97", "result": 23.6, "unit": "h"},
      {"measurement": "t1/2 of Colistin", "setting": "[2]; Patient 2, eGFR 27 mL/min/1.73m^2, RRT none, R2 = 0.99", "result": 23.43, "unit": "h"},
      {"measurement": "t1/2 of Colistin", "setting": "[2]; Patient 4, eGFR 58 mL/min/1.73m^2, RRT CVVHDF, R2 = 0.996", "result": 19.5, "unit": "h"},
      {"measurement": "t1/2 of Colistin", "setting": "[2]; Patient 5, eGFR 59 mL/min/1.73m^2, RRT IHD, R2 = 0.98", "result": 16.5, "unit": "h"},
      {"measurement": "t1/2 of Colistin", "setting": "[2]; Patient 6, eGFR 99 mL/min/1.73m^2, RRT CVVHDF, R2 = 0.91", "result": 30.9, "unit": "h"},
      {"measurement": "t1/2 of Colistin", "setting": "[2]; Patient 8, eGFR 51 mL/min/1.73m^2, RRT IHD, R2 = 0.999", "result": 17.9, "unit": "h"},
      {"measurement": "half-life", "setting": "[2]; human, in vivo, mean of 6 out of 8 patients, plasma after end of CMS treatment, first-order kinetic, read-out: elimination half-time of Colistin, mean (converted)", "result": 1320, "unit": "min"},
      {"measurement": "result of treatment", "setting": "[3]; Patient 1, CRAB wound infection, 3 × 3 million IU CMS, 7 days, colonization persisted", "result": "eradication of the CRAB wound infection was achieved"},
      {"measurement": "result of treatment", "setting": "[3]; Patient 2, CRAB bloodstream, wound and pulmonary infection, colonization and pulmonary infection remained", "result": "cured the bloodstream infection"},
      {"measurement": "result of treatment", "setting": "[3]; Patient 6, first treatment cycle, bloodstream and pulmonary CRAB infection", "result": "bloodstream infection was cured but colonization persisted"},
      {"measurement": "elimination by prolonged intermittent RRT", "setting": "[4]", "result": "up to 50%"}
    ]},
    {"molecule": "Colistin methanosulfate [CMS]", "values": [
      {"measurement": "mean CMS trough level", "setting": "[1]; in vivo", "result": 1.6, "unit": "mg/L"},
      {"measurement": "mean CMS peak level", "setting": "[1]; plasma, sampled 30 min after CMS injection, all patients pooled, mean (±SD), n = 381, HPLC-MS/MS, unit not given", "result": "8.7 (±4.1, n = 381)"},
      {"measurement": "result of treatment", "setting": "[3]; Patient 3, CRAB bloodstream and wound infection, after dose increase to 3 × 4 million IU", "result": "eradication of both bloodstream and wound infection"},
      {"measurement": "result of treatment", "setting": "[3]; Patient 4, in combination with surgical focus eradication, MDR Pseudomonas infection and colonization persisted", "result": "the CRAB infection was eliminated"},
      {"measurement": "result of treatment", "setting": "[3]; Patient 5, 3 × 4 million IU, colonization with CRAB persisted", "result": "successfully eradicated CRAB from the bloodstream and from pulmonary samples"},
      {"measurement": "result of treatment", "setting": "[3]; Patient 6, second treatment cycle, recurrent CRAB bloodstream infection, blood stream samples", "result": "eradication of CRAB within 3 days of treatment"},
      {"measurement": "result of treatment", "setting": "[3]; Patient 7, first treatment cycle, 6 days of CMS", "result": "successful eradication of CRAB from wound samples"},
      {"measurement": "result of treatment", "setting": "[3]; Patient 7, second treatment cycle, 4.5 million IU twice daily, resistant colonization remained", "result": "the bloodstream infection was successfully eradicated"},
      {"measurement": "renal function (eGFR) under treatment", "setting": "[5]", "result": "gradual decline of renal function"},
      {"measurement": "portion of CMS undergoing renal excretion", "setting": "[4]", "result": "about two thirds"},
      {"measurement": "elimination by prolonged intermittent RRT", "setting": "[4]", "result": "up to 50%"}
    ]}
  ]
}
